BigSolDB 2.1

COc1cc(Cl)c(OC)cc1N
Conditions | solubility (mole fraction)
in 1-methoxy-2-propanol, 277.4 K | 0.0208
in 1-methoxy-2-propanol, 281.6 K | 0.0267
in 1-methoxy-2-propanol, 289.4 K | 0.0327
in 1-methoxy-2-propanol, 294.3 K | 0.0369
in 1-methoxy-2-propanol, 298.5 K | 0.045
in 1-methoxy-2-propanol, 302.6 K | 0.0536
in 1-methoxy-2-propanol, 307.6 K | 0.0649
in 1-methoxy-2-propanol, 312.6 K | 0.0772
in 1-methoxy-2-propanol, 316.8 K | 0.089
in 1-methoxy-2-propanol, 320.9 K | 0.101
in 1-methoxy-2-propanol, 326.3 K | 0.125
in 2-ethoxyethanol, 278.6 K | 0.0282
in 2-ethoxyethanol, 283.5 K | 0.0322
in 2-ethoxyethanol, 287.6 K | 0.0361
in 2-ethoxyethanol, 291.7 K | 0.04
in 2-ethoxyethanol, 295.8 K | 0.0453
in 2-ethoxyethanol, 300.3 K | 0.0559
in 2-ethoxyethanol, 306.7 K | 0.0672
in 2-ethoxyethanol, 310.9 K | 0.0785
in 2-ethoxyethanol, 315 K | 0.0894
in 2-ethoxyethanol, 319.7 K | 0.1
in 2-ethoxyethanol, 323.9 K | 0.117
in 2-ethoxyethanol, 328 K | 0.138
in 2-methoxyethanol, 277.2 K | 0.0282
in 2-methoxyethanol, 281.1 K | 0.034
in 2-methoxyethanol, 285.5 K | 0.0427
in 2-methoxyethanol, 291.2 K | 0.0497
in 2-methoxyethanol, 295.3 K | 0.0549
in 2-methoxyethanol, 299.4 K | 0.06
in 2-methoxyethanol, 303.6 K | 0.0665
in 2-methoxyethanol, 307.7 K | 0.0768
in 2-methoxyethanol, 312.1 K | 0.0884
in 2-methoxyethanol, 315.7 K | 0.0986
in 2-methoxyethanol, 319.6 K | 0.112
in 2-methoxyethanol, 324.2 K | 0.129
in diethylene glycol, 276.7 K | 0.0167
in diethylene glycol, 280.9 K | 0.0188
in diethylene glycol, 285.1 K | 0.021
in diethylene glycol, 289.4 K | 0.0233
in diethylene glycol, 295.5 K | 0.0279
in diethylene glycol, 299.6 K | 0.0312
in diethylene glycol, 303.8 K | 0.0346
in diethylene glycol, 307.9 K | 0.0396
in diethylene glycol, 312 K | 0.0447
in diethylene glycol, 316.5 K | 0.0512
in diethylene glycol, 320.8 K | 0.0584
in diethylene glycol, 325.3 K | 0.0675

COc1ccc(OC)c(N)c1
Conditions | solubility (mole fraction)
in 1-methoxy-2-propanol, 276.6 K | 0.0204
in 1-methoxy-2-propanol, 279.7 K | 0.0255
in 1-methoxy-2-propanol, 282.8 K | 0.0306
in 1-methoxy-2-propanol, 285.9 K | 0.0382
in 1-methoxy-2-propanol, 289 K | 0.0512
in 1-methoxy-2-propanol, 292.1 K | 0.0675
in 1-methoxy-2-propanol, 295.2 K | 0.0867
in 1-methoxy-2-propanol, 298.3 K | 0.11
in 1-methoxy-2-propanol, 301.6 K | 0.14
in 1-methoxy-2-propanol, 305.1 K | 0.174
in 1-methoxy-2-propanol, 310.4 K | 0.211
in 1-methoxy-2-propanol, 314.7 K | 0.239
in 1-methoxy-2-propanol, 318.8 K | 0.281
in 1-methoxy-2-propanol, 322.9 K | 0.323
in 2-ethoxyethanol, 276.7 K | 0.0186
in 2-ethoxyethanol, 279.8 K | 0.0238
in 2-ethoxyethanol, 282.9 K | 0.029
in 2-ethoxyethanol, 286 K | 0.0369
in 2-ethoxyethanol, 289.1 K | 0.0481
in 2-ethoxyethanol, 292.2 K | 0.0635
in 2-ethoxyethanol, 295.3 K | 0.0834
in 2-ethoxyethanol, 298.4 K | 0.106
in 2-ethoxyethanol, 301.6 K | 0.135
in 2-ethoxyethanol, 304.7 K | 0.165
in 2-ethoxyethanol, 308.9 K | 0.199
in 2-ethoxyethanol, 313 K | 0.231
in 2-ethoxyethanol, 317.1 K | 0.262
in 2-ethoxyethanol, 321.4 K | 0.311
in 2-ethoxyethanol, 325.5 K | 0.371
in 2-methoxyethanol, 276.4 K | 0.0331
in 2-methoxyethanol, 280.5 K | 0.046
in 2-methoxyethanol, 284.6 K | 0.0617
in 2-methoxyethanol, 288.7 K | 0.0819
in 2-methoxyethanol, 292.8 K | 0.102
in 2-methoxyethanol, 296.9 K | 0.123
in 2-methoxyethanol, 301 K | 0.15
in 2-methoxyethanol, 305.1 K | 0.185
in 2-methoxyethanol, 309.2 K | 0.217
in 2-methoxyethanol, 313.4 K | 0.254
in 2-methoxyethanol, 316.6 K | 0.292
in diethylene glycol, 276.7 K | 0.00015
in diethylene glycol, 280.9 K | 0.000379
in diethylene glycol, 285 K | 0.000611
in diethylene glycol, 289.1 K | 0.000885
in diethylene glycol, 293.2 K | 0.00119
in diethylene glycol, 297.3 K | 0.00165
in diethylene glycol, 301.4 K | 0.00325
in diethylene glycol, 303.5 K | 0.00532
in diethylene glycol, 305.6 K | 0.00751
in diethylene glycol, 307.7 K | 0.015
in diethylene glycol, 309.8 K | 0.0248
in diethylene glycol, 311.9 K | 0.0458
in diethylene glycol, 314 K | 0.0704
in diethylene glycol, 316.1 K | 0.104
in diethylene glycol, 318.2 K | 0.14
in diethylene glycol, 320.7 K | 0.177
in diethylene glycol, 323.7 K | 0.216

COc1cc([N+](=O)[O-])c(OC)cc1Cl
Conditions | solubility (mole fraction)
in 1-methoxy-2-propanol, 282.2 K | 0.00313
in 1-methoxy-2-propanol, 287.1 K | 0.00354
in 1-methoxy-2-propanol, 291.6 K | 0.00392
in 1-methoxy-2-propanol, 296 K | 0.00428
in 1-methoxy-2-propanol, 300.3 K | 0.00466
in 1-methoxy-2-propanol, 304.6 K | 0.00648
in 1-methoxy-2-propanol, 309 K | 0.00937
in 1-methoxy-2-propanol, 313.1 K | 0.0123
in 1-methoxy-2-propanol, 317.2 K | 0.0154
in 1-methoxy-2-propanol, 321.3 K | 0.0191
in 1-methoxy-2-propanol, 325.7 K | 0.0258
in 2-ethoxyethanol, 276.7 K | 0.00187
in 2-ethoxyethanol, 280.8 K | 0.00226
in 2-ethoxyethanol, 284.9 K | 0.00266
in 2-ethoxyethanol, 289.1 K | 0.00307
in 2-ethoxyethanol, 293.2 K | 0.00347
in 2-ethoxyethanol, 297.3 K | 0.00389
in 2-ethoxyethanol, 301.4 K | 0.00502
in 2-ethoxyethanol, 305.5 K | 0.00638
in 2-ethoxyethanol, 309.6 K | 0.00874
in 2-ethoxyethanol, 314 K | 0.0139
in 2-ethoxyethanol, 320.6 K | 0.0193
in 2-ethoxyethanol, 327.1 K | 0.0237
in 2-methoxyethanol, 283.2 K | 0.00622
in 2-methoxyethanol, 290.9 K | 0.00838
in 2-methoxyethanol, 295.3 K | 0.00953
in 2-methoxyethanol, 299.4 K | 0.0107
in 2-methoxyethanol, 303.1 K | 0.0119
in 2-methoxyethanol, 306.8 K | 0.0146
in 2-methoxyethanol, 313 K | 0.0177
in 2-methoxyethanol, 317.9 K | 0.0201
in 2-methoxyethanol, 321.7 K | 0.0226
in 2-methoxyethanol, 325.8 K | 0.0282
in 2-methoxyethanol, 329.8 K | 0.0335
in diethylene glycol, 282.1 K | 0.000239
in diethylene glycol, 286.5 K | 0.000275
in diethylene glycol, 290.8 K | 0.000321
in diethylene glycol, 296.1 K | 0.000364
in diethylene glycol, 301.6 K | 0.000402
in diethylene glycol, 306.2 K | 0.00048
in diethylene glycol, 310.7 K | 0.000573
in diethylene glycol, 315.2 K | 0.000717
in diethylene glycol, 319.5 K | 0.000876
in diethylene glycol, 323.6 K | 0.00109
in diethylene glycol, 327.7 K | 0.00136
